Data as given in patent publication US12133900B2, “Synthesis and composition of amino acid linking groups conjugated to compounds used for the targeted imaging of tumors” (Purdue Research Foundation, priority 2013, dated 2024).

Tests used:
[1] = Chemical and optical properties of NIR dyes (Table 1); format: physicochemical
[2] = system: FR-positive MDA-MB 231 orthotopic tumors; assay: Imaging and biodistribution, MDA-MB 231 orthotopic model; format: in vivo, mice; conditions: 2 nmol, 2 h
Experimental: Breast cancer was developed by implanting breast cancer cells in the […] fat pad of the mouse.
(§1) Following whole body imaging, animals were dissected and selected tissues (heart, lung, liver, spleen, kidneys, stomach, small intestine, large intestine, muscle, skin, and tumor) were analyzed for fluorescence activity using IVIS imager using same settings as in whole body imaging.

FR-alpha and beta = conditions: cited from earlier work
[3] = system: FR-positive L1210A tumors; assay: Imaging and biodistribution, L1210A metastatic model (OTL38); format: in vivo, mice; conditions: 2 nmol, 2 h
Experimental: One million (1×106) of either L1210A or MDA-MB231 cancer cells per mouse (cancer cells/mouse) were administered via tail vein injection into the mice. Tumor growth was monitored every other day using a Caliper IVIS Lumina II Imaging Station with Living Image 4.0 software (PerkinElmer Inc.).
as §1

CC1(C)C(/C=C/C2=C(Oc3ccc(C[C@H](NC(=O)c4ccc(NCc5cnc6nc(N)[nH]c(=O)c6n5)cc4)C(=O)[O-])cc3)C(=C/C=C3\N(CCCCS(=O)(=O)[O-])c4ccc(S(=O)(=O)[O-])cc4C3(C)C)/CCC2)=[N+](CCCCS(=O)(=O)[O-])c2ccc(S(=O)(=O)[O-])cc21.[H+].[H+].[H+].[H+] [OTL-0038, Pte-Tyr-S0456]
E [1]: 272000 M⁻¹ cm⁻¹ | Q (%) [1]: 15.6% | Stokes Shift (nm) [1]: 20 nm | λem (nm) [1]: 776 nm | λex (nm) [1]: 796 nm | ex-vivo tissue biodistribution [2]: highest fluorescence intensities were observed in FR-positive tumors and kidneys | tumor-to-normal tissue ratios [2]: excellent tumor-to-normal tissue ratios | whole body imaging: accumulation [2]: accumulated mainly in the FR-positive MDA-MB 231 orthotopic tumors | affinity for FR-alpha versus beta (FR-alpha and beta): binds to FR-alpha and beta with same affinity | tumor-to-normal tissue ratios [3]: excellent tumor-to-normal tissue ratios | whole body imaging: accumulation [3]: accumulated mainly in the FR-positive L1210A tumors metastasize to the liver, lung and spleen
